Measured values as given in ChEMBL document CHEMBL3872277, “1-Heteroarylpropan-2-ones as inhibitors of fatty acid amide hydrolase: Studies on structure-activity relationships and metabolic stability” (Bioorg Med Chem, 2017).
pIC50: −log10 of the molar value. ≈ marks a conversion by molar mass, not a printed value.

Experiments:
[1] = molecular target: T1, Fatty-acid amide hydrolase 1 (Rattus norvegicus, UniProt P97612); assay: Inhibition of FAAH in rat brain microsomes using N-(2-hydroxyethyl)-4-pyren-1-ylbutanamide as substrate after 60 mins by fluorescence-based reversed phase HPLC analysis
T1 sequence (P97612 whole entry): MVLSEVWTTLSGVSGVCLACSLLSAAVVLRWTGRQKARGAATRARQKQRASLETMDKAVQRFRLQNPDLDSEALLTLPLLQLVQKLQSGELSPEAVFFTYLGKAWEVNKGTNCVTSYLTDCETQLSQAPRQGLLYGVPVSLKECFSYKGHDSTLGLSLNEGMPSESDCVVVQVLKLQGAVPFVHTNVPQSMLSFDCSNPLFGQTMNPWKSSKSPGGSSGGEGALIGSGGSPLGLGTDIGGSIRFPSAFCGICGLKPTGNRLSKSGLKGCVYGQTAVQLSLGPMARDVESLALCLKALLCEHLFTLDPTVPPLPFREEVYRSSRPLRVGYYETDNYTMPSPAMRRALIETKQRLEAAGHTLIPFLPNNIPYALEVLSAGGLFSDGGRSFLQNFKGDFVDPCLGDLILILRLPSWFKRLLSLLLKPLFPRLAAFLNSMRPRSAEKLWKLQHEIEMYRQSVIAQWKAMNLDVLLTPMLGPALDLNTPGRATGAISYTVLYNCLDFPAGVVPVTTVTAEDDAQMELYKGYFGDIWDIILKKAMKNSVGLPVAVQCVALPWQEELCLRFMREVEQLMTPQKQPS

[2] = Metabolic stability in rat liver S9 fraction assessed as amount of parent compound remaining after 30 mins under aerobic conditions in presence of NADPH by reversed HPLC -UV detection analysis; type: ADME, subcellular; conditions: for Stability: s9, 0.5 h; for remaining at 0.5 h: liver S9 fraction, read-out: Stability
[3] = Thermodynamic aqueous solubility of the compound at pH 7.4 at 20 degC sonicated for 10 mins after 24 hrs UV-HPLC analysis; type: physicochemical; conditions: read-out: Therm_solubility
[4] = Drug metabolism in rat liver S9 fraction assessed as alcohol derivative metabolite formation after 30 mins under aerobic conditions in presence of NADPH by reversed HPLC/MS analysis; type: ADME, subcellular; conditions: s9, 0.5 h
[5] = Inhibition of pig platelet cytosolic phospholipase A2alpha using 1-stearoyl-2-arachidonoyl-sn-glycero-3-phosphocholine/1,2-dioleoyl-sn-glycerol as substrate after 60 mins by reversed phase HPLC-UV detection analysis; design: species or system Sus scrofa
[6] = Ratio of IC50 for pig platelet cytosolic phospholipase A2alpha to IC50 for FAAH in rat brain microsomes
[7] = Drug metabolism in rat liver S9 fraction assessed as hydroxylation product metabolite formation after 30 mins under aerobic conditions in presence of NADPH by reversed HPLC/MS analysis; type: ADME, subcellular; conditions: s9, 0.5 h

| SMILES | pIC50 [1] | remaining at 0.5 h [2] | also measured |
| --- | --- | --- | --- |
| CCCCCCCCc1ccc(OCC(=O)Cn2ncc3ncccc32)cc1 | 7.03 |  |  |
| O=C(COc1ccc(-c2cccc(Cl)c2)cc1)Cn1nnc2ccccc21 | 7.96 |  | Stability [2]: Unstable |
| O=C(COc1ccc(-c2ccccc2)cc1)Cn1nnc2ccccc21 | 7.92 | 0% | solubility thermodynamic at 24 h [3]: 2 µg/mL (≈ 5.82 µM); Drug metabolism [4]: Metabolite_Detected; pIC50 [5]: 5.62; Ratio IC50 [6]: 100 to 500 |
| CC(C(=O)COc1ccc(-c2ccccc2)cc1)n1ncnn1 (stereo unspecified) | 5.20 | 0% |  |
| O=C1NC(=O)C(c2ccccc2)(c2ccccc2)N1 [PHENYTOIN] |  |  | solubility thermodynamic at 24 h [3]: 18 µg/mL (≈ 71.4 µM) |
| CC(C(=O)COc1ccc(-c2ccccc2)cc1)n1cnnn1 (stereo unspecified) | < 5.00 | 11% |  |
| CCCCCCCCc1ccc(OCC(=O)Cn2ccnc2)cc1 | 6.39 |  |  |
| O=C(COc1ccc(-c2ccc(F)cc2)cc1)Cn1nnc2ccccc21 | 7.92 |  | Stability [2]: Unstable |
| CCCCCCCCc1ccc(OCC(=O)Cn2ncc3cccnc32)cc1 | 5.80 |  |  |
| CCC(Oc1ccc(-c2ccccc2)cc1)C(=O)Cn1nnc2ccccc21 (stereo unspecified) | 5.74 | 51% | Drug metabolism [7]: Metabolite_Notdetected |
| CCCCCCCCc1ccc(OCC(=O)Cn2nnc3ccccc32)cc1 | 7.82 |  |  |
| CC(Oc1ccc(-c2ccccc2)cc1)C(=O)Cn1cnnn1 (stereo unspecified) | 7.72 | 9% | solubility thermodynamic at 24 h [3]: 4 µg/mL (≈ 13 µM); pIC50 [5]: 5.16; Ratio IC50 [6]: 100 to 500 |
| CCCCCCCCc1ccc(OCC(=O)Cn2cnc3ncccc32)cc1 | 6.21 |  |  |
| CC(Oc1ccc(-c2ccccc2)cc1)C(=O)Cn1ncnn1 (stereo unspecified) | 8.05 | 0% | solubility thermodynamic at 24 h [3]: 2 µg/mL (≈ 6.49 µM); pIC50 [5]: 5.48; Ratio IC50 [6]: 100 to 500 |
| CCCCCCCCCCOc1ccc(OCC(=O)COc2ccc(C(=O)O)cc2)cc1 |  |  | pIC50 [5]: 8.19 |

More lines, main results first:

| pIC50 [1] | remaining at 0.5 h [2] | SMILES | also measured |
| --- | --- | --- | --- |
| 6.08 |  | CCCCCCCCc1ccc(OCC(=O)Cn2cccn2)cc1 |  |
| 7.28 |  | CCCCCCCCc1ccc(OCC(=O)Cn2cncn2)cc1 |  |
| 7.31 |  | CCCCCCCCc1ccc(OCC(=O)Cn2nnc3ncccc32)cc1 |  |
| 7.89 | 23% | CC(Oc1ccc(-c2ccccc2)cc1)C(=O)Cn1nnc2ccccc21 (stereo unspecified) | solubility thermodynamic at 24 h [3]: < 1 µg/mL; pIC50 [5]: 5.17; Ratio IC50 [6]: 100 to 500 |
| < 5.00 |  | CCCCCCCCc1ccc(OCC(=O)Cn2ccc3ncccc32)cc1 |  |
| 6.20 | 21% | CC(C(=O)COc1ccc(-c2ccccc2)cc1)n1nnc2ccccc21 (stereo unspecified) |  |
| 7.00 |  | CCCCCCCCc1ccc(OCC(=O)Cn2nccn2)cc1 |  |
| 7.85 |  | O=C(COc1ccc(-c2cccc(F)c2)cc1)Cn1nnc2ccccc21 | Stability [2]: Unstable |
| 7.68 |  | O=C(COc1ccc(-c2ccc(Cl)cc2)cc1)Cn1nnc2ccccc21 | Stability [2]: Unstable |
| 5.64 |  | CCCCCCCCc1ccc(OCC(=O)Cn2ncc3ccccc32)cc1 |  |
| 6.39 |  | CCCCCCCCc1ccc(OCC(=O)Cn2cnc3cccnc32)cc1 |  |
| 7.96 | 0% | O=C(COc1ccc(-c2ccccc2)cc1)Cn1ncnn1 | solubility thermodynamic at 24 h [3]: 10 µg/mL (≈ 34 µM); pIC50 [5]: 5.74; Ratio IC50 [6]: 100 to 500 |
| 7.37 | 0% | O=C(COc1ccc(-c2ccccc2)cc1)Cn1cnnn1 | solubility thermodynamic at 24 h [3]: 11 µg/mL (≈ 37.4 µM); pIC50 [5]: 5.31; Ratio IC50 [6]: 100 to 500 |
| 6.32 |  | CCCCCCCCc1ccc(OCC(=O)Cn2cnc3ccccc32)cc1 |  |
| 7.92 | 29% | CC(Oc1ccc(-c2ccc(F)cc2)cc1)C(=O)Cn1nnc2ccccc21 (stereo unspecified) |  |
| 7.89 |  | CCCCCCCCc1ccc(OCC(=O)Cn2nnc3cccnc32)cc1 |  |
